Test results from patent US8637550B2, “Heteroaryl diamide compounds useful as MMP-13 inhibitors” (Boehringer Ingelheim International GmbH, priority 2008, dated 2014).
“And” between values parts separate entries of the source, which are not always exact repeats. Equal entries are not always repeated.

These molecules were tested against MMP-13 (Homo sapiens, UniProt P45452) (assay: EnzoLyte 520 Generic MMP Assay Kit, 5-FAM/QXL520 FRET peptide substrate).
Assay type: biochemical
Text: The EnzoLyte™ 520 Generic MMP Assay Kit (AnaSpec Inc.) can detect the activity of several MMPs including MMP-1, 2, 3, 7, 8, 9, 13, and 14. This kit uses a 5-FAM/QXL™520 fluorescence resonance energy transfer (FRET) peptide as an MMP substrate.

| SMILES | IC50 |
| --- | --- |
| CNC(=O)[C@@H](NC(=O)c1ccc(-c2ccc(OCc3cncn3C)cn2)o1)C1CCCCC1 [N-[(1S)-1-cyclohexyl-2-(methylamino)-2-oxoethyl]-5-{5-[(1-methyl-1H-imidazol-5-yl)methoxy]pyridin-2-yl}furan-2-carboxamide] | 18 nM |
| CNC(=O)[C@@H](NC(=O)c1ccc(-c2ccc(OCc3ccn(C)n3)cn2)o1)C1CCCCC1 [N-[(1S)-1-cyclohexyl-2-(methylamino)-2-oxoethyl]-5-{5-[(1-methyl-1H-pyrazol-3-yl)methoxy]pyridin-2-yl}furan-2-carboxamide] | 25 nM |
| CNC(=O)[C@@H](NC(=O)c1ccc(-c2ccc(OCc3ccnn3C)cn2)o1)C1CCCCC1 [N-[(1S)-1-cyclohexyl-2-(methylamino)-2-oxoethyl]-5-{5-[(1-methyl-1H-pyrazol-5-yl)methoxy]pyridin-2-yl}furan-2-carboxamide] | 6 nM |
| CNC(=O)[C@@H](NC(=O)c1ccc(-c2ccc(O[C@H](C)c3ccncc3)cn2)o1)C1CCCCC1 [N-[(1S)-1-cyclohexyl-2-(methylamino)-2-oxoethyl]-5-{5-[(1R)-1-(pyridin-4-yl)ethoxy]pyridin-2-yl}furan-2-carboxamide] | 3 nM |
| CNC(=O)[C@@H](NC(=O)c1ccc(-c2ccc(O[C@H](C)c3ccccc3)cn2)o1)C1CCCCC1 [N-[(1S)-1-cyclohexyl-2-(methylamino)-2-oxoethyl]-5-{5-[(1R)-1-phenylethoxy]pyridin-2-yl}furan-2-carboxamide] | 41 nM and 73 nM |
| CNC(=O)[C@@H](NC(=O)c1ccc(-c2ccc(O[C@@H](C)c3ccccc3)cn2)o1)C1CCCCC1 [N-[(1S)-1-cyclohexyl-2-(methylamino)-2-oxoethyl]-5-{5-[(1S)-1-phenylethoxy]pyridin-2-yl}furan-2-carboxamide] | 295 nM |
| CNC(=O)[C@@H](NC(=O)c1ccc(-c2ccc(OCc3cc(C)nc(C)c3)cn2)o1)C1CCCCC1 [N-[(1S)-1-cyclohexyl-2-(methylamino)-2-oxoethyl]-5-{5-[(2,6-dimethylpyridin-4-yl)methoxy]pyridin-2-yl}furan-2-carboxamide] | 2 nM |
| CNC(=O)[C@@H](NC(=O)c1ccc(-c2ccc(OCc3ccnc(C)c3)cn2)o1)C1CCCCC1 [N-[(1S)-1-cyclohexyl-2-(methylamino)-2-oxoethyl]-5-{5-[(2-methylpyridin-4-yl)methoxy]pyridin-2-yl}furan-2-carboxamide] | 1 nM |
| CNC(=O)[C@@H](NC(=O)c1ccc(-c2ccc(OCc3cc(C)cc(C)c3)cn2)o1)C1CCCCC1 [N-[(1S)-1-cyclohexyl-2-(methylamino)-2-oxoethyl]-5-{5-[(3,5-dimethylbenzyl)oxy]pyridin-2-yl}furan-2-carboxamide] | 115 nM |
| CNC(=O)[C@@H](NC(=O)c1ccc(-c2ccc(OCc3cccc(C)c3)cn2)o1)C1CCCCC1 [N-[(1S)-1-cyclohexyl-2-(methylamino)-2-oxoethyl]-5-{5-[(3-methylbenzyl)oxy]pyridin-2-yl}furan-2-carboxamide] | 36 nM |
| CNC(=O)[C@@H](NC(=O)c1ccc(-c2ccc(OCc3ccncc3C)cn2)o1)C1CCCCC1 [N-[(1S)-1-cyclohexyl-2-(methylamino)-2-oxoethyl]-5-{5-[(3-methylpyridin-4-yl)methoxy]pyridin-2-yl}furan-2-carboxamide] | 3 nM |
| CNC(=O)[C@@H](NC(=O)c1ccc(-c2ccc(OCc3cc(C)ccn3)cn2)o1)C1CCCCC1 [N-[(1S)-1-cyclohexyl-2-(methylamino)-2-oxoethyl]-5-{5-[(4-methylpyridin-2-yl)methoxy]pyridin-2-yl}furan-2-carboxamide] | 8 nM |
| CNC(=O)[C@@H](NC(=O)c1ccc(-c2ccc(OCc3cn(C)cn3)cn2)o1)C1CCNCC1 [N-[(1S)-2-(methylamino)-2-oxo-1-(piperidin-4-yl)ethyl]-5-{5-[(1-methyl-1H-imidazol-4-yl)methoxy]pyridin-2-yl}furan-2-carboxamide] | 163 nM |
| NC(=O)COCCNC(=O)[C@@H](NC(=O)c1ccc(-c2ccc(Cl)cc2)o1)C1CCCCC1 [N-[(1S)-2-{[2-(2-amino-2-oxoethoxy)ethyl]amino}-1-cyclohexyl-2-oxoethyl]-5-(4-chlorophenyl)furan-2-carboxamide] | 325 nM |
| COCC(C)NC(=O)[C@@H](NC(=O)c1ccc(-c2ccc(NC(=O)c3cc4ccccc4o3)cc2)o1)C1CCCCC1 (stereo partly drawn) [N-{4-[5-({(1S)-1-cyclohexyl-2-[(1-methoxypropan-2-yl)amino]-2-oxoethyl}carbamoyl)furan-2-yl]phenyl}-1-benzofuran-2-carboxamide] | 355 nM |
